Test results taken from US12577217B2, “15-PGDH inhibitor” (KYORIN Pharmaceutical Co., Ltd., priority 2019, dated 2026).

Molecular target: T1, recombinant human 15-PGDH (Homo sapiens, UniProt P15428)
T1 construct: purchased R&D Systems
T1 sequence (P15428 1-266): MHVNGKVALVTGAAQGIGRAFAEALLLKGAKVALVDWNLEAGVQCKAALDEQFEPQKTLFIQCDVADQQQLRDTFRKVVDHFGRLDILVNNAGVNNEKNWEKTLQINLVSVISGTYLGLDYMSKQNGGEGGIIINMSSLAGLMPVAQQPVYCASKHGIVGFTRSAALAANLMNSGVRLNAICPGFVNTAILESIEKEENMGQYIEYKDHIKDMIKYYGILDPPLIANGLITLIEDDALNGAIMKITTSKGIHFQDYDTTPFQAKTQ
Assay: 15-PGDH enzyme inhibition test
Format: biochemical
Conditions: 4 nM recombinant human 15-PGDH, 30 μM PGE2, 1 mM NAD+, 60 minutes after starting the reaction; read-out: IC50 Value
In short: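 4 nM recombinant human enzyme pre-incubated with compound 12 min at room temperature in 50 mM Tris-HCl pH 8.0 with 0.01% Tween 20 and 0.01% bovine gamma globulin. Reaction started with 30 μM PGE2 and 1 mM NAD+, read after 60 min by fluorescence (ex 340/em 440 nm). IC50 from concentration-response curve.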

Structure (SMILES): O=C(c1cnc2c(c1)OCCN2c1ccc2ccncc2c1)N1CCCCC1 [Example 1-260]
- IC50: < 10 nM

Structure (SMILES): O=C(c1cnc2c(c1)CCCN2c1ccc2c(c1)CN(C1CC1)C2=O)N1CCC(F)(F)CC1 [Example 1-213]
- IC50: < 10 nM

Structure (SMILES): O=C(O)Cc1ccc(N2CCOc3cc(C(=O)N4CCCCC4)ccc32)cc1 [Example 2-32]
- IC50: < 10 nM

Structure (SMILES): CNC(=O)c1ccc(N2CCOc3cc(C(=O)N4CCCCC4)cnc32)cc1 [Example 6-18]
- IC50: < 10 nM

Structure (SMILES): COC(=O)Cn1nc2cc(N3CCOc4cc(C(=O)N5CCCCC5)cnc43)ccn2c1=O [Example 1-40]
- IC50: < 10 nM

Structure (SMILES): C[C@@H]1CCCN1C(=O)c1cnc2c(c1)OCCN2c1ccn2c(=O)n(C)nc2c1 [Example 8-22]
- IC50: 10 to 100 nM

Structure (SMILES): O=C(c1cnc2c(c1)OCCN2c1ccn2c(=O)n(Cc3ccc(F)cc3)nc2c1)N1CCC(F)(F)CC1 [Example 27-4]
- IC50: < 10 nM

Structure (SMILES): C[C@@H]1CCCN(C(=O)c2cnc3c(c2)CCCN3c2ccn3c(=O)n(C)nc3c2)C1 [Example 8-134]
- IC50: < 10 nM

Structure (SMILES): O=C(O)c1cccc(N2CCCc3cc(C(=O)N4CCCCC4)cnc32)c1 [Example 4-20]
- IC50: 10 to 100 nM

Structure (SMILES): O=C(c1cnc2c(c1)CCCN2c1ccc2c(c1)CN(C1CC1)C2=O)N1CCCCC1 [Example 1-198]
- IC50: < 10 nM

Structure (SMILES): CNC(=O)c1ccc(N2CCCc3cc(C(=O)N4CCCCC4)cnc32)cc1C [Example 1-207]
- IC50: 10 to 100 nM

Structure (SMILES): Cn1nc2cc(N3CCOc4cc(C(=O)N5CC=CCC5)cnc43)ccn2c1=O [Example 8-229]
- IC50: < 10 nM

Structure (SMILES): O=C(O)c1cccc(N2CCOc3cc(C(=O)N4CCCCC4)cnc32)c1 [Example 4-19]
- IC50: 10 to 100 nM

Structure (SMILES): C[C@@H]1COc2cc(C(=O)N3CCCCC3)ccc2N(c2ccc(C(=O)O)cc2)C1 [Example 2-11]
- IC50: < 10 nM

Structure (SMILES): O=C(c1cnc2c(c1)OCCN2c1ccn2cnnc2c1)N1CCCCC1 [Example 1-105]
- IC50: < 10 nM

Structure (SMILES): Cn1nc2cc(N3CCCc4cc(C(=O)N5CCC(F)(F)CC5)cnc43)ccn2c1=O [Example 1-129]
- IC50: < 10 nM

Structure (SMILES): NC(=O)c1ccc(N2CCOc3cc(C(=O)N4CCCCC4)cnc32)cc1F [Example 6-4]
- IC50: < 10 nM

Structure (SMILES): CN1Cc2cc(N3CCOc4cc(C(=O)N5CCC[C@H](F)C5)cnc43)ccc2C1=O [Example 8-200]
- IC50: < 10 nM

Structure (SMILES): CN1Cc2cc(N3CCOc4cc(C(=O)N5CCCC(C)(F)C5)cnc43)ccc2C1=O (stereo not drawn) [Example 8-209]
- IC50: < 10 nM

Structure (SMILES): CCN1Cc2cc(N3CCOc4cc(C(=O)N5CCC(F)(F)CC5)cnc43)ccc2C1=O [Example 8-212]
- IC50: < 10 nM

Structure (SMILES): CCCCn1nc2cc(N3CCCc4cc(C(=O)N5CCCCC5)cnc43)ccn2c1=O [Example 1-203]
- IC50: < 10 nM

Structure (SMILES): Cn1nc2cc(N3CCOc4cc(C(=O)N5CCCC6(COC6)C5)cnc43)ccn2c1=O [Example 8-52]
- IC50: 10 to 100 nM

Structure (SMILES): CS(=O)(=O)NCc1ccc(N2CCOc3cc(C(=O)N4CCCCC4)ccc32)cc1 [Example 1-160]
- IC50: < 10 nM

Structure (SMILES): Cn1nc2cc(N3CCN(c4cccnc4)c4cc(C(=O)N5CCC(F)(F)CC5)cnc43)ccn2c1=O [Example 30-5]
- IC50: > 100 nM

Structure (SMILES): O=C(c1cnc2c(c1)OCCN2c1ccc(F)c(F)c1)N1CCCCC1 [Example 1-239]
- IC50: 10 to 100 nM

Structure (SMILES): CCN1Cc2cc(N3CCCc4cc(C(=O)N5CCC[C@@H](C)C5)cnc43)ccc2C1=O [Example 8-89]
- IC50: < 10 nM

Structure (SMILES): CCOCCN1Cc2cc(N3CCCc4cc(C(=O)N5CCCCC5)cnc43)ncc2C1=O [Example 1-73]
- IC50: 10 to 100 nM

Structure (SMILES): CN1Cc2cc(N3CCOc4cc(C(=O)N5CCC(F)(F)CC5)cnc43)cnc2C1=O [Example 1-45]
- IC50: < 10 nM

Structure (SMILES): CC(=O)N(C)C1CCCN(C(=O)c2cnc3c(c2)OCCN3c2ccn3c(=O)n(C)nc3c2)C1 (stereo not drawn) [Example 34-1, N-Methyl-N-(1-(4-(2-methyl-3-oxo-2,3-dihydro-[1,2,4]triazolo[4,3-a]pyridin-7-yl)-3,4-dihydro-2H-pyrido[3,2-b][1,4]oxazin-7-carbonyl)piperidin-3-yl)acetamide]
- IC50: > 100 nM

Structure (SMILES): O=C(O)c1ccc(N2CCCSc3cc(C(=O)N4CCCCC4)ccc32)cc1 [Example 2-18]
- IC50: < 10 nM
